Experimental data taken from ChEMBL document CHEMBL3885881, “DrugMatrix”.

Organism: Rattus norvegicus
Test: DrugMatrix - Regimen: Daily Repeat
Format: toxicity, organism-based, Sprague-Dawley
Parameters: regimen Daily Repeat, gender Male, age 6-8 weeks
Conditions: in vivo, po, route oral GAVAGE, […]; for ABSOLUTE BASOPHIL / ABSOLUTE EOSINOPHIL / ABSOLUTE LYMPHOCYTE / ABSOLUTE MONOCYTE / ABSOLUTE SEGMENTED NEUTROPHIL / BASOPHIL / EOSINOPHIL / ERYTHROCYTE COUNT / HEMATOCRIT / HEMOGLOBIN / LEUKOCYTE COUNT / LYMPHOCYTE / MEAN CORPUSCULAR HEMOGLOBIN / MEAN CORPUSCULAR HEMOGLOBIN CONCENTRATION / MEAN CORPUSCULAR VOLUME / MONOCYTE / NEUTROPHIL / NUCLEATED RED BLOOD CELLS / PLATELET COUNT: tissue Blood; for ALANINE AMINOTRANSFERASE / ALBUMIN / ALKALINE PHOSPHATASE / ASPARTATE AMINOTRANSFERASE / BLOOD UREA NITROGEN / CARBON DIOXIDE / CHLORIDE / CHOLESTEROL / CREATINE PHOSPHOKINASE / CREATININE / GLUCOSE / LACTATE DEHYDROGENASE / LIPASE / PHOSPHORUS / POTASSIUM / SODIUM / TOTAL BILIRUBIN / TOTAL PROTEIN / URIC ACID: tissue Plasma
[1] = 0 mg/kg, 72 h, dose level Control, time 3 day
[2] = 0 mg/kg, 120 h, dose level Control, time 5 day
[3] = 30 mg/kg, 72 h, dose level Low, time 3 day
[4] = 30 mg/kg, 120 h, dose level Low, time 5 day

COc1ccc2[nH]c([S+]([O-])Cc3ncc(C)c(OC)c3C)nc2c1 (configuration not stated) [OMEPRAZOLE]
ABSOLUTE BASOPHIL [1]: 0 CELLS/uL | ABSOLUTE EOSINOPHIL [1]: 70.67 CELLS/uL | ABSOLUTE LYMPHOCYTE [1]: 12761.5 CELLS/uL | ABSOLUTE MONOCYTE [1]: 214.17 CELLS/uL | ABSOLUTE SEGMENTED NEUTROPHIL [1]: 987 CELLS/uL | BASOPHIL [1]: 0% | EOSINOPHIL [1]: 0.5% | ERYTHROCYTE COUNT [1]: 5.61 x10E6/uL | HEMATOCRIT [1]: 35.22% | HEMOGLOBIN [1]: 13.57 G/DL | LEUKOCYTE COUNT [1]: 14.03 x10E3/uL | LYMPHOCYTE [1]: 91% | MEAN CORPUSCULAR HEMOGLOBIN [1]: 24.25 pg | MEAN CORPUSCULAR HEMOGLOBIN CONCENTRATION [1]: 38.52 G/DL | MEAN CORPUSCULAR VOLUME [1]: 62.9 fL | MONOCYTE [1]: 1.5% | NEUTROPHIL [1]: 7% | NUCLEATED RED BLOOD CELLS [1]: 0 /100WBC | PLATELET COUNT [1]: 997.5 x10E3/uL | ALANINE AMINOTRANSFERASE [1]: 66.5 u/L | ALBUMIN [1]: 3.98 G/DL | ALKALINE PHOSPHATASE [1]: 350 u/L | ASPARTATE AMINOTRANSFERASE [1]: 83.83 u/L | BLOOD UREA NITROGEN [1]: 12.33 mg/dL | CARBON DIOXIDE [1]: 30.33 mmol/L | CHLORIDE [1]: 100 MEQ/L | CHOLESTEROL [1]: 75 mg/dL | CREATINE PHOSPHOKINASE [1]: 200 u/L | CREATININE [1]: 0.17 mg/dL | GLUCOSE [1]: 170 mg/dL | LACTATE DEHYDROGENASE [1]: 89.33 u/L | LIPASE [1]: 10.33 u/L | PHOSPHORUS [1]: 10.88 mg/dL | POTASSIUM [1]: 6.13 MEQ/L | SODIUM [1]: 140.53 MEQ/L | TOTAL BILIRUBIN [1]: 0.2 mg/dL | TOTAL PROTEIN [1]: 5.67 G/DL | URIC ACID [1]: 1.6 mg/dL | ABSOLUTE BASOPHIL [2]: 0 CELLS/uL | ABSOLUTE EOSINOPHIL [2]: 0 CELLS/uL | ABSOLUTE LYMPHOCYTE [2]: 9526.67 CELLS/uL | ABSOLUTE MONOCYTE [2]: 134.17 CELLS/uL | ABSOLUTE SEGMENTED NEUTROPHIL [2]: 922.5 CELLS/uL | BASOPHIL [2]: 0% | EOSINOPHIL [2]: 0% | ERYTHROCYTE COUNT [2]: 5.58 x10E6/uL | HEMATOCRIT [2]: 34.78% | HEMOGLOBIN [2]: 13.5 G/DL | LEUKOCYTE COUNT [2]: 10.58 x10E3/uL | LYMPHOCYTE [2]: 90.17% | MEAN CORPUSCULAR HEMOGLOBIN [2]: 24.27 pg | MEAN CORPUSCULAR HEMOGLOBIN CONCENTRATION [2]: 38.82 G/DL | MEAN CORPUSCULAR VOLUME [2]: 62.48 fL | MONOCYTE [2]: 1.17% | NEUTROPHIL [2]: 8.67% | NUCLEATED RED BLOOD CELLS [2]: 0.17 /100WBC | PLATELET COUNT [2]: 807.17 x10E3/uL | ALANINE AMINOTRANSFERASE [2]: 66.83 u/L | ALBUMIN [2]: 3.73 G/DL | ALKALINE PHOSPHATASE [2]: 286.17 u/L | ASPARTATE AMINOTRANSFERASE [2]: 142.33 u/L | BLOOD UREA NITROGEN [2]: 14.67 mg/dL | CARBON DIOXIDE [2]: 25.5 mmol/L | CHLORIDE [2]: 89.17 MEQ/L | CHOLESTEROL [2]: 75.17 mg/dL | CREATINE PHOSPHOKINASE [2]: 310.67 u/L | CREATININE [2]: 0.2 mg/dL | GLUCOSE [2]: 153 mg/dL | LACTATE DEHYDROGENASE [2]: 1594 u/L | LIPASE [2]: 14.83 u/L | PHOSPHORUS [2]: 11.28 mg/dL | POTASSIUM [2]: 8.46 MEQ/L | SODIUM [2]: 126.88 MEQ/L | TOTAL BILIRUBIN [2]: 0.37 mg/dL | TOTAL PROTEIN [2]: 5.53 G/DL | URIC ACID [2]: 1.52 mg/dL | ABSOLUTE BASOPHIL [3]: 0 CELLS/uL | ABSOLUTE EOSINOPHIL [3]: 80 CELLS/uL | ABSOLUTE LYMPHOCYTE [3]: 11444.67 CELLS/uL | ABSOLUTE MONOCYTE [3]: 85.33 CELLS/uL | ABSOLUTE SEGMENTED NEUTROPHIL [3]: 690 CELLS/uL | BASOPHIL [3]: 0% | EOSINOPHIL [3]: 0.67% | ERYTHROCYTE COUNT [3]: 5.41 x10E6/uL | HEMATOCRIT [3]: 34.37% | HEMOGLOBIN [3]: 13.77 G/DL | LEUKOCYTE COUNT [3]: 12.3 x10E3/uL | LYMPHOCYTE [3]: 93% | MEAN CORPUSCULAR HEMOGLOBIN [3]: 25.47 pg | MEAN CORPUSCULAR HEMOGLOBIN CONCENTRATION [3]: 40.07 G/DL | MEAN CORPUSCULAR VOLUME [3]: 63.53 fL | MONOCYTE [3]: 0.67% | NEUTROPHIL [3]: 5.67% | NUCLEATED RED BLOOD CELLS [3]: 0.67 /100WBC | PLATELET COUNT [3]: 1225.33 x10E3/uL | ALANINE AMINOTRANSFERASE [3]: 59.67 u/L | ALBUMIN [3]: 4.03 G/DL | ALKALINE PHOSPHATASE [3]: 348.67 u/L | ASPARTATE AMINOTRANSFERASE [3]: 77.33 u/L | BLOOD UREA NITROGEN [3]: 12 mg/dL | CARBON DIOXIDE [3]: 29.33 mmol/L | CHLORIDE [3]: 101 MEQ/L | CHOLESTEROL [3]: 72.33 mg/dL | CREATINE PHOSPHOKINASE [3]: 303.67 u/L | CREATININE [3]: 0.14 mg/dL | GLUCOSE [3]: 175.33 mg/dL | LACTATE DEHYDROGENASE [3]: 111 u/L | LIPASE [3]: 10.33 u/L | PHOSPHORUS [3]: 12.23 mg/dL | POTASSIUM [3]: 6.24 MEQ/L | SODIUM [3]: 143.63 MEQ/L | TOTAL BILIRUBIN [3]: 0.17 mg/dL | TOTAL PROTEIN [3]: 5.8 G/DL | URIC ACID [3]: 1.57 mg/dL | ABSOLUTE BASOPHIL [4]: 0 CELLS/uL | ABSOLUTE EOSINOPHIL [4]: 0 CELLS/uL | ABSOLUTE LYMPHOCYTE [4]: 8312.33 CELLS/uL | ABSOLUTE MONOCYTE [4]: 87.33 CELLS/uL | ABSOLUTE SEGMENTED NEUTROPHIL [4]: 233.67 CELLS/uL | BASOPHIL [4]: 0% | EOSINOPHIL [4]: 0% | ERYTHROCYTE COUNT [4]: 6.01 x10E6/uL | HEMATOCRIT [4]: 36% | HEMOGLOBIN [4]: 13.93 G/DL | LEUKOCYTE COUNT [4]: 8.63 x10E3/uL | LYMPHOCYTE [4]: 96.33% | MEAN CORPUSCULAR HEMOGLOBIN [4]: 23.2 pg | MEAN CORPUSCULAR HEMOGLOBIN CONCENTRATION [4]: 38.73 G/DL | MEAN CORPUSCULAR VOLUME [4]: 59.9 fL | MONOCYTE [4]: 1% | NEUTROPHIL [4]: 2.67% | NUCLEATED RED BLOOD CELLS [4]: 0 /100WBC | PLATELET COUNT [4]: 1213.33 x10E3/uL | ALANINE AMINOTRANSFERASE [4]: 65 u/L | ALBUMIN [4]: 4.2 G/DL | ALKALINE PHOSPHATASE [4]: 440.33 u/L | ASPARTATE AMINOTRANSFERASE [4]: 88.67 u/L | BLOOD UREA NITROGEN [4]: 14 mg/dL | CARBON DIOXIDE [4]: 30 mmol/L | CHLORIDE [4]: 98.67 MEQ/L | CHOLESTEROL [4]: 69 mg/dL | CREATINE PHOSPHOKINASE [4]: 217.67 u/L | CREATININE [4]: 0.27 mg/dL | GLUCOSE [4]: 163.33 mg/dL | LACTATE DEHYDROGENASE [4]: 152.67 u/L | LIPASE [4]: 11.67 u/L | PHOSPHORUS [4]: 11.43 mg/dL | POTASSIUM [4]: 5.8 MEQ/L | SODIUM [4]: 144.67 MEQ/L | TOTAL BILIRUBIN [4]: 0.17 mg/dL | TOTAL PROTEIN [4]: 6.1 G/DL | URIC ACID [4]: 1 mg/dL
